# Assays:
# TrkA = target: T1, TrkA (Homo sapiens, UniProt P04629); experiment: In vitro Trk receptor modulation assay (Enzyme Fragment Complementation), U2OS cells over-expressing TrkA; assay type: cell-based; conditions: compound pre-mixed with ligand (NGF), final 10 ng/mL, 3 hours, modulator mode
# T1 construct: expressed in transfected cells; host or cells: U2OS
# Description: (§1) A high throughput cell-based screen was used to identify positive modulators of TrkA and TrkB. The screen involves the use of cell-based assay overexpressing TrkA, or TrkB. The purpose of the assay is to identify compounds that modulate neurotrophin signalling (Forsell et al 2012). The assay can be used in inhibitor mode using a high concentration of ligand, in modulator mode using an intermediate concentration and in agonist mode using a low concentration of ligand.
# (§2) The assay uses Enzyme Fragment Complementation (EFC) technique, which is a proximity-based assay. Briefly, cells used in this assay over-express two fusion proteins, i.e. the receptor, which can be one of TrkA or TrkB fused to a small peptide of beta-galactosidase and an adaptor protein, i.e. SHC1 (or any other Trk-adaptor protein) fused to the major part of beta-galactosidase. […] The proximity between the small activating peptide on the receptor and the major part of beta-galactosidase on the adaptor protein leads to an active beta-galactosidase enzyme. The activation of the receptor is quantified by measuring the amount of active beta-galactosidase by its conversion of a non-luminescent substrate into a luminescent product.
# (§3) U2OS-cells, over-expressing TrkA or TrkB, were plated in 96- or 384-well plates and incubated overnight. On the following day, test compound was pre-mixed with ligand (NGF) and the ligand-compound mixture is then added to the cells to yield a final ligand concentration of 10 ng/mL. After 3 hours of incubation at room temperature, the incubation is stopped by the addition of a beta-galactosidase substrate mixture containing detergents. The substrate mixture is incubated for 60 minutes at ambient temperature. The luminescence is thereafter read by the use of a plate reader.
# C57/Bl6 mice = experiment: Passive avoidance task in scopolamine-treated mice; assay type: in vivo; conditions: mice treated with scopolamine 0.3 mg/kg s.c.; compound single s.c. administration 60 min prior to training, different doses
# Procedure: The passive avoidance (PA) is an aversive learning task based on classical (Pavlovian) fear conditioning that allows for analysis of both facilitation and impairment of memory function by adjusting the unconditioned stimulus, i.e. the electrical foot shock. Commonly a cognitive-impairing agent is administered to the animals to mimic the neurochemical disturbances present in various cognitive disorders e.g. cholinergic (scopolamine) and glutamatergic (MK-801) deficits.
# Prior to testing, the animals are brought to the experimental room where they were allowed to habituate for 60 min. The test is conducted using a modified shuttle box with two communicating compartments of equal size with a small sliding door built into the separating wall and a stainless-steel bar floor. One of the compartments is not illuminated and thus black whereas the other compartment (the light one) is illuminated by an electric bulb, installed on the top of a plexiglass cover. The PA training is conducted in a single session. […] Latency to cross over into the dark compartment (training latency) is recorded. […] The latency to cross over into the dark compartment with all four feet is measured (retention latency) as well as time in bright compartment and a number of other relevant parameters (e.g. number of visits in the dark compartment). […]
# [1] = Human liver microsomal stability; assay type: in vitro ADME; conditions: human liver microsomes 0.5 mg/mL, 3 μM compound, NADPH, 37° C.
# Procedure: A 10 mM stock solution (in DMSO) was prepared for each compound. From the intermediate stock solution of 2 mM, a working solution of 0.5 mM was prepared by diluting the compound in Acetonitrile:water (50:50). The compound (1.8 μL of working solution) was spiked in 0.1 M potassium phosphate buffer (260.7 μL), pH 7.4 at a concentration of 3 μM (0.1% DMSO). Following this, human liver microsomes (pooled, Invitrogen, #HMMCPL) (7.5 μL; final protein conc. 0.5 mg/mL) were added. The aforementioned sample was incubated at 37° C. for 5 min. Subsequently, 30 μL of 10 mM NADPH prepared in 0.1 M potassium phosphate buffer was added (as a co-factor) to initiate the reaction. The samples were then incubated at 37° C. for 0, 20, 40, 60 and 120 min.
# At each time point (0, 20, 40, 60 and 120 min), 40 μL of the samples were withdrawn and reactions were stopped using 360 μL chilled acetonitrile or methanol containing suitable internal standard (Carbamazepine). The samples were centrifuged and the supernatants was analyzed in duplicate by LC-MS/MS. The percent compound remaining at each time point was calculated with respect to that of the 0 min sample. Control samples were run without NADPH for initial and final time point and blank samples was prepared using DMSO (without the test compound).
# For comparison, the experiment was also performed with known Trk receptor signalling modulator 1-methyl-3-[3-methyl-4-(4-trifluoromethanesulfonylphenoxy)phenyl]-1,3,5-triazinane-2,4,6-trione) (ponazuril). Ponazuril is metabolized very slowly in vivo and this prolonged exposure creates an increased risk of side effects if the compound is administered systemically. This causes significant challenges to the development of the compound as a systemic drug.
# TrkB = target: T2, TrkB (Homo sapiens, UniProt Q16620); experiment: In vitro Trk receptor modulation assay (Enzyme Fragment Complementation), U2OS cells over-expressing TrkB; assay type: cell-based; conditions: compound pre-mixed with ligand (NGF), final 10 ng/mL, 3 hours, modulator mode
# T2 construct: expressed in transfected cells; host or cells: U2OS
# Description: as §1, §2, §3
# T2 sequence (Q16620 32-822): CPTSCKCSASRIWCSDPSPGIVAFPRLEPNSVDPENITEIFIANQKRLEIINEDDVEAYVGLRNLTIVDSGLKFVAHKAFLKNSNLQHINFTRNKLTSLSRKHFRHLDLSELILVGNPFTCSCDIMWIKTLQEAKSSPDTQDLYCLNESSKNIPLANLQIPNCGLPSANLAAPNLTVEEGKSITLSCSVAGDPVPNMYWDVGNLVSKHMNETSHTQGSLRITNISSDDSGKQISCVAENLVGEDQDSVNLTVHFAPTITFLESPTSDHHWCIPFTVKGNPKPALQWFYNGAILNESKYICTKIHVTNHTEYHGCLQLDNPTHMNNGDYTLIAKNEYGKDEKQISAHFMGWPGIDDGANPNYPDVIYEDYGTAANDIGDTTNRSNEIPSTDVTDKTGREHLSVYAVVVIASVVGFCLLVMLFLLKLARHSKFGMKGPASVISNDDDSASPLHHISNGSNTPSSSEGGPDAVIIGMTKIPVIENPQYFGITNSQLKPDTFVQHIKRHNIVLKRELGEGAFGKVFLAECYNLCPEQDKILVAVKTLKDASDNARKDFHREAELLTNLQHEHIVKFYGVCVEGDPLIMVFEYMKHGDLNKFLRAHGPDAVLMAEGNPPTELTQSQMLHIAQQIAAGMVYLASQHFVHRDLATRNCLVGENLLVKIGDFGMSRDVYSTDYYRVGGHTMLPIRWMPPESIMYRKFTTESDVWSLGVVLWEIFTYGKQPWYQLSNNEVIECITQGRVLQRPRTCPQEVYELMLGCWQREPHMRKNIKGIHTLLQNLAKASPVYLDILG
# T1 sequence (P04629 33-796): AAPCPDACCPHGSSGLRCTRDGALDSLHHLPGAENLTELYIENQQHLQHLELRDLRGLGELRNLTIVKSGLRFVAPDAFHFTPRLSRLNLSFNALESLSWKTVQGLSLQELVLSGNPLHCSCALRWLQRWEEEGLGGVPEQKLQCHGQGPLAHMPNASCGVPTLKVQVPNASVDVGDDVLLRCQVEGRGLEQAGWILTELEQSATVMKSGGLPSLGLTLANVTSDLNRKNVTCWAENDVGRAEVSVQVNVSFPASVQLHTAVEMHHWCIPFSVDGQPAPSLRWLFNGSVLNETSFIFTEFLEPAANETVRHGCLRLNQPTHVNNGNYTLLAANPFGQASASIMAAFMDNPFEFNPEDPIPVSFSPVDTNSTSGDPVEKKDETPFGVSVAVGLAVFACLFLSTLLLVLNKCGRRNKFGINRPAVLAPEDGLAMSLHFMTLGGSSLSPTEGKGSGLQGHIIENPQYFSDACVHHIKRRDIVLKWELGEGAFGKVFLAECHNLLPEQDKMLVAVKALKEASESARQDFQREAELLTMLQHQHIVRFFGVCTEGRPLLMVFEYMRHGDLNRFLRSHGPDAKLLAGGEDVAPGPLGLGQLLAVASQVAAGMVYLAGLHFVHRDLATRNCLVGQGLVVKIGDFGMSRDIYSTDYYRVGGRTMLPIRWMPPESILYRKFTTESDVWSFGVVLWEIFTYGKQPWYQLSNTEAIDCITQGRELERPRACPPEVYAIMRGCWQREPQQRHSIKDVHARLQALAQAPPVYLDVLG
SMILES,EC50 (TrkA),"cognitive function, retention latency within the bright area (passive avoidance) (C57/Bl6 mice)",% of parent compound metabolized after 120 min [1],EC50 (TrkB)
"COCc1cc(-n2c(=O)[nH]c(=O)n(-c3cccc(C)c3)c2=O)ccc1Oc1ccccc1 [Example 3, 1-[3-(methoxymethyl)-4-phenoxyphenyl]-3-(3-methylphenyl)-1,3,5-triazinane-2,4,6-trione]",330 nM,improves cognitive function,82.0%,310 nM
"CCc1cc(-n2c(=O)[nH]c(=O)n(-c3cccc(C)c3)c2=O)ccc1Oc1ccccc1 [Example 7, 1-(3-ethyl-4-phenoxyphenyl)-3-(3-methylphenyl)-1,3,5-triazinane-2,4,6-trione]",130 nM,–,48.8%,90 nM
"Cc1cccc(-n2c(=O)[nH]c(=O)n(-c3ccc(Oc4ccccc4)c(OCC(=O)N4CCCCC4)c3)c2=O)c1 [Example 10, 1-(3-methylphenyl)-3-{3-[2-oxo-2-(piperidin-1-yl)ethoxy]-4-phenoxyphenyl}-1,3,5-triazinane-2,4,6-trione]",280 nM,–,99.8%,320 nM
"CCc1cc(-n2c(=O)[nH]c(=O)n(-c3ccccc3)c2=O)ccc1Oc1ccccc1 [Example 6, 1-(3-ethyl-4-phenoxyphenyl)-3-phenyl-1,3,5-triazinane-2,4,6-trione]",210 nM,–,–,220 nM
"COc1ccc(-n2c(=O)[nH]c(=O)n(-c3ccc(Oc4ccccc4)c(C)c3)c2=O)cc1 [Example 8, 1-(4-methoxyphenyl)-3-(3-methyl-4-phenoxyphenyl)-1,3,5-triazinane-2,4,6-trione]",350 nM,–,–,230 nM
"Cc1cc(-n2c(=O)[nH]c(=O)n(C)c2=O)ccc1Oc1ccc(S(=O)(=O)C(F)(F)F)cc1 [ponazuril, 1-methyl-3-[3-methyl-4-(4-trifluoromethanesulfonylphenoxy)phenyl]-1,3,5-triazinane-2,4,6-trione, reference compound]",–,–,3.1%,–
"COCc1cccc(-n2c(=O)[nH]c(=O)n(-c3ccc(Oc4ccccc4)c(C)c3)c2=O)c1 [Example 2, 1-[3-(methoxymethyl)phenyl]-3-(3-methyl-4-phenoxyphenyl)-1,3,5-triazinane-2,4,6-trione]",430 nM,–,13.3%,260 nM
"Cc1cccc(-n2c(=O)[nH]c(=O)n(-c3ccc(Oc4ccccc4)c(OCC(=O)N4CCCC4)c3)c2=O)c1 [Example 9, 1-(3-methylphenyl)-3-{3-[2-oxo-2-(pyrrolidin-1-yl)ethoxy]-4-phenoxyphenyl}-1,3,5-triazinane-2,4,6-trione]",210 nM,–,82.8%,150 nM
"Cc1cccc(-n2c(=O)[nH]c(=O)n(-c3ccc(Oc4ccccc4)c(CN4CCNC4=O)c3)c2=O)c1 [Example 5, 1-(3-methylphenyl)-3-{3-[(2-oxoimidazolidin-1-yl)methyl]-4-phenoxyphenyl}-1,3,5-triazinane-2,4,6-trione]",300 nM,–,15.4%,120 nM
"Cc1cccc(-n2c(=O)[nH]c(=O)n(-c3ccc(Oc4ccccc4)c(OCC(=O)N4CCOCC4)c3)c2=O)c1 [Example 11, 1-(3-methylphenyl)-3-{3-[2-(morpholin-4-yl)-2-oxoethoxy]-4-phenoxyphenyl}-1,3,5-triazinane-2,4,6-trione]",270 nM,–,57.3%,180 nM
"CSc1cc(-n2c(=O)[nH]c(=O)n(-c3ccccc3)c2=O)ccc1Oc1ccccc1 [Example 13, 1-[3-(methylsulfanyl)-4-phenoxyphenyl]-3-phenyl-1,3,5-triazinane-2,4,6-trione]",640 nM,–,4.7%,380 nM
"Cc1cccc(-n2c(=O)[nH]c(=O)n(-c3ccc(Oc4ccccc4)c(CN4CCCC4=O)c3)c2=O)c1 [Example 15, 1-(3-methylphenyl)-3-{3-[(2-oxopyrrolidin-1-yl)methyl]-4-phenoxyphenyl}-1,3,5-triazinane-2,4,6-trione]",40 nM,–,29.6%,110 nM
"Cc1cccc(-n2c(=O)[nH]c(=O)n(-c3ccc(Oc4ccccc4)c(OCC(=O)N4CCC4)c3)c2=O)c1 [Example 12, 1-{3-[2-(azetidin-1-yl)-2-oxoethoxy]-4-phenoxyphenyl}-3-(3-methylphenyl)-1,3,5-triazinane-2,4,6-trione]",410 nM,–,–,220 nM
"Cc1cc2cccc(-n3c(=O)[nH]c(=O)n(-c4ccc(Oc5ccccc5)c(C)c4)c3=O)c2o1 [Example 4, 1-(2-methyl-1-benzofuran-7-yl)-3-(3-methyl-4-phenoxyphenyl)-1,3,5-triazinane-2,4,6-trione]",300 nM,–,37.7%,270 nM
"CSc1cc(-n2c(=O)[nH]c(=O)n(-c3cccc(C)c3)c2=O)ccc1Oc1ccccc1 [Example 14, 1-(3-methylphenyl)-3-[3-(methylsulfanyl)-4-phenoxyphenyl]-1,3,5-triazinane-2,4,6-trione]",650 nM,–,53.4%,300 nM
